According to patent publication US20240417393A1, “CERTAIN 2,5-DIAZABICYCLO[4.2.0]OCTANES AS GLP-1 RECEPTOR MODULATORS” (ASTRAZENECA AB, priority 2021, published 2024):

Legend:
[1] = biological target: T1, human GLP-1R receptor (Homo sapiens, UniProt P43220, L260F); assay: CHOK1 GLP-1R cAMP Assay (HTRF); type: cell-based; details: CHO-K1 cells stably expressing human GLP-1R (Leu260Phe variant), 20 min at rt
T1 construct: expressed in transfected cells; host or cells: CHO-K1 (ATCC CCL-61)
Procedure: A cell line stably expressing the human GLP-1R receptor (NM_002062.5, including the naturally-occurring variant Leu260Phe) in a CHO-K1 (ATCC® CCL-61™) was used for assay.
GLP-1 receptor mediated agonist activity was determined in a cell-based assay measuring cyclic adenosine monophosphate (cAMP) levels in cells using Homogeneous Time-Resolved Fluorescence (HTRF) cAMP detection kit (CisBio catalog #62AM4PEC, cAMP Gs Dynamic range kit). The cAMP detection method is based on a competitive immunoassay, in which cAMP produced by the cells and cAMP labeled with the dye d2 compete for binding to a Europium-Cryptate-labeled anti-cAMP antibody. The specific HTRF signal is inversely proportional to the concentration of cAMP.
Compounds were added to individual well in 384 well-assay plates (Greiner #784076) using an Echo (LabCyte) dispenser from 10 mM stocks. Varying concentration of compounds were added to wells, and DMSO was used to normalize each well to a volume of 100 nL. A dose response curve of GLP-1(7-36)NH2 (Bachem H-6795) was included in each run. 5 μL of cAMP concentration response standards are applied in specified wells in the assay plates. Cryo-preserved cells are thawed and resuspended in assay buffer pre-heated to 37° C. (20 mM 2-[4-(2-hydroxyethyl)piperazin-1-yl]ethanesulfonic acid (HEPES) pH 7.4, 1× Hank's Balanced Salt Solution (HBSS, Life Technologies #14065) supplemented with 0.1% (w/v) bovine serum albumin (Sigma, A-7030)). Cells were centrifuged at 250*g for 5 min at rt, and resuspended in room tempered assay buffer to a final density of 0.16*10^6 cell/mL, to deliver 800 cells/well. 5 μL of assay buffer with 1 mM 3-isobutyl-1-methylxanthin (IBMX; Sigma cat I-7018) was dispensed per well in assay plates using a multidrop combi (Thermo Scientific) subsequently 5 μL of cell suspension was distributed to relevant wells in the assay using a multidrop dispenser. Assay plates were incubated 20 min at rt.
Detection reagents, Europium-Cryptate-labeled anti-cAMP antibody and cAMP labeled with the dye d2, are diluted in lysis buffer, provided by the manufacturer. 5 μL of each detection reagent is supplemented to each assay well using a multidrop dispenser. Assay plates are incubated in the dark for at least one h. The HTRF signal is measured using the HTRF module (excitation: 337 nm, emission A: 665 nm and emission B: 620 nm) in Pherastar FSX (BMG Labtech).
Raw data were converted to pM cAMP using the cAMP standard curve included in each run. Converted data were further analyzed in Genedata Screener (Genedata) and EC50 determinations were made from agonist dose-response curves analyzed with a curve fitting is program using a 4-parameter logistic dose response equation (Equation y=A+((B-A)/1+((C/x)^D))) where A is no stimulation, B is full stimulation, C is the EC50 and D is the Hill slope). The percent effect was determined relative to a saturating concentration of a full GLP-1R agonist (GLP-1(7-36)NH2 has 100% effect in this assay setup).

[2] = biological target: T2, GLP-1R in a pancreatic insulinoma cell line (EndoC-PH1) (Homo sapiens, UniProt P43220); assay: EndoC cAMP Accumulation Assay (HTRF); type: cell-based; details: EndoC-PH1 human pancreatic beta cell line, endogenous GLP-1R, 30 min at rt
T2 construct: host or cells: EndoC-βH1 human pancreatic beta cell line
T2 sequence (P43220 24-463): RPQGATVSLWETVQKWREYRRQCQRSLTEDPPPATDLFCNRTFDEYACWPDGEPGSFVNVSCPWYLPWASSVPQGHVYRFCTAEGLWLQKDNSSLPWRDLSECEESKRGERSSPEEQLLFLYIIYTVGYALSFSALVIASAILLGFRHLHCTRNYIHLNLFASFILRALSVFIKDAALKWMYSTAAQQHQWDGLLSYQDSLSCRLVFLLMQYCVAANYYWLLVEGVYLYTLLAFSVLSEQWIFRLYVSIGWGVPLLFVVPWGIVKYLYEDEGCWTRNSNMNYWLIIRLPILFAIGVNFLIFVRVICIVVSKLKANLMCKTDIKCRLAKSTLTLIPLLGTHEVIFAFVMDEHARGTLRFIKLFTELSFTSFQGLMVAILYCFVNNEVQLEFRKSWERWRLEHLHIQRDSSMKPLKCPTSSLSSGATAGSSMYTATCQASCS
From the text: EndoC cAMP Accumulation Assay
A HTRF cAMP assay (cAMP Gs dynamic kit; CisoBio Cat #62AM4PEJ) was used to identify agonists of GLP-1R in a pancreatic insulinoma cell line (EndoC-PH1). […] EndoC-PHlcells have detectable GLP-1R messenger ribonucleic acid (mRNA) as detected by quantitative polymerase chain reaction (qPCR). […] The EndoC-PH1 cell line is a valid model of human beta cells and applicable for screenings to identify novel drug target candidates (Mol. Metab., 2018, 8, 144-157). CisBio HTRF cAMP kits are based on a competitive immunoassay using cryptate-labelled anti-cAMP antibody and d2-labeled cAMP. The detection kit is intended for the direct is quantitative determination of cAMP. The specific signal (i.e. energy transfer) is inversely proportional to the concentration of cAMP in the standard or sample. Test compounds (10 mM in DMSO) were diluted into assay buffer (HBSS (Sigma #H8264) supplemented with 25 mM HEPES (Gibco #15630, pH 7.4), 0.1% BSA (Sigma #A3059) and 0.5 mM IBMX (Sigma #I7018) included fresh on the day of the assay) into 96 well U-bottom plates (Greiner #650201). Diluted compounds were transferred to ECHO source polypropelene plates (Labcyte #P-05525) and dose response curves were dispensed acoustically using ECHO 550 into black shallow-well u-bottom 384-well HTRF Assay Plates (Corning 4514). Cryovials of EndoC-H1 (supplied at 1×10e^7 cells/vial) were used directly for screening. The cryovials and were removed from N2(1) and thawed rapidly in a 37° C. water bath. The cells were resuspended in assay buffer and centrifuged at 300 g for 5 min. Cells were resuspended in assay buffer at the appropriate concentration, typically at 12e5 cells per mL (3000 cells per well, dependent on cell batch) and 2.5 μL diluted cells were added to all wells of destination plate by Multidrop combi reagent dispenser (Thermofisher). The plates were incubated at rt for 30 min. The assay was stopped by adding 2.5 μL anti-cAMP cryptate solution to all wells and 2.5 μL cAMP-d2 solution (both diluted 1:20 in lysis buffer) to columns 1-22 by Combi drop. A volume of 2.5 μL cAMP-d2 solution was added to wells E23 to P24 and 2.5 μL lysis buffer added to wells A23 to D24 by multichannel pipette. The plates were incubated at rt for 1 h and read on an Envision plate reader using excitation wavelength of 320 nm and emission of […] and 660 nm.
Raw data from Envision is converted to % DeltaF according to the manufacturer's instructions. Dose response curves are analysed via 4-Parameter Logistical Analysis and assay plate Z’ values obtained. Samples are graphed as percentage (%) activation plots compared to […] with assay window defined by negative control as basal cell is cAMP levels and positive control are defined by maximum GIP (82.5 nM) signal. GLP-1 (7-36 amide, Bachem H-6795) dose response curve was included on all plates.

T1 sequence (P43220 24-463 L260F): as the sequence (P43220 24-463) above, with L237F counted along it

Row | EC50 [1] | EC50 [2] | Compound
1 | 2.5 nM | 2.8 nM | C[C@]1(c2ccc(Cl)cn2)Oc2cccc(N3CCN(Cc4nc5c(Cl)cc(C(=O)O)cc5n4C[C@@H]4CCO4)[C@H]4CC[C@H]43)c2O1 (single isomer, unassigned) [Example 20d, 4-Chloro-2-(((1R*,6S*)-5-((R*)-2-(5-chloropyridin-2-yl)-2-methylbenzo[d][1,3]dioxol-4-yl)-2,5-diazabicyclo[4.2.0]octan-2-yl)methyl)-1-(((S)-oxetan-2-yl)methyl)-1H-benzo[d]imidazole-6-carboxylic acid]
2 | 7 nM | 7.3 nM | C[C@]1(c2ccc(Cl)cc2F)Oc2cccc(N3CCN(Cc4nc5ccc(C(=O)O)cc5n4C[C@@H]4CCO4)[C@H]4CC[C@@H]43)c2O1 (single isomer, unassigned) [Example 21a, 2-(((1R*,6R*)-5-((R*)-2-(4-Chloro-2-fluorophenyl)-2-methylbenzo[d][1,3]dioxol-4-yl)-2,5-diazabicyclo[4.2.0]octan-2-yl)methyl)-1-(((S)-oxetan-2-yl)methyl)-1H-benzo[d]imidazole-6-carboxylic acid]
3 | 340 nM | 2200 nM | C[C@]1(c2ccc(Cl)cc2F)Oc2cccc(N3CCN(Cc4nc5ccc(C(=O)O)cc5n4C[C@@H]4CCO4)[C@H]4CC[C@@H]43)c2O1 (single isomer, unassigned) [Example 21b, 2-(((1R*,6R*)-5-((R*)-2-(4-Chloro-2-fluorophenyl)-2-methylbenzo[d][1,3]dioxol-4-yl)-2,5-diazabicyclo[4.2.0]octan-2-yl)methyl)-1-(((S)-oxetan-2-yl)methyl)-1H-benzo[d]imidazole-6-carboxylic acid]
4 | 29 nM | 49 nM | C[C@]1(c2ccc(Cl)cn2)Oc2cccc(N3CCN(Cc4nc5ccc(C(=O)O)cc5n4C[C@@H]4CCO4)[C@H]4CC[C@@H]43)c2O1 (single isomer, unassigned) [Example 22a, 2-(((1R*,6R*)-5-((R*)-2-(5-Chloropyridin-2-yl)-2-methylbenzo[d][1,3]dioxol-4-yl)-2,5-diazabicyclo[4.2.0]octan-2-yl)methyl)-1-(((S)-oxetan-2-yl)methyl)-1H-benzo[d]imidazole-6-carboxylic acid]
5 | 5.3 nM | 18 nM | C[C@]1(c2ccc(Cl)cn2)Oc2cccc(N3CCN(Cc4nc5ccc(C(=O)O)cc5n4C[C@@H]4CCO4)[C@H]4CC[C@@H]43)c2O1 (single isomer, unassigned) [Example 22b, 2-(((1R*,6R*)-5-((R*)-2-(5-Chloropyridin-2-yl)-2-methylbenzo[d][1,3]dioxol-4-yl)-2,5-diazabicyclo[4.2.0]octan-2-yl)methyl)-1-(((S)-oxetan-2-yl)methyl)-1H-benzo[d]imidazole-6-carboxylic acid]
6 | 1.1 nM | 2.8 nM | C[C@]1(c2ccc(Cl)cn2)Oc2cccc(N3CCN(Cc4nc5c(F)cc(C(=O)O)cc5n4CC4(CC#N)CC4)[C@H]4CC[C@@H]43)c2O1 (single isomer, unassigned) [Example 23a]
7 | 27 nM | 85 nM | C[C@]1(c2ccc(Cl)cn2)Oc2cccc(N3CCN(Cc4nc5c(F)cc(C(=O)O)cc5n4CC4(CC#N)CC4)[C@H]4CC[C@@H]43)c2O1 (single isomer, unassigned) [Example 23b]
8 | 140 nM | 360 nM | C[C@]1(c2ccc(Cl)cn2)Oc2cccc(N3CCN(Cc4nc5c(F)cc(C(=O)O)cc5n4CC4(CC#N)CC4)[C@H]4CC[C@@H]43)c2O1 (single isomer, unassigned) [Example 23c]
9 | 11 nM | 7.6 nM | C[C@]1(c2ccc(Cl)cn2)Oc2cccc(N3CCN(Cc4nc5c(F)cc(C(=O)O)cc5n4CC4(CC#N)CC4)[C@H]4CC[C@@H]43)c2O1 (single isomer, unassigned) [Example 23d]
10 | 32 nM | 16 nM | C[C@]1(c2ccc(Cl)cn2)Oc2cccc(N3CCN(Cc4nc5c(F)cc(C(=O)O)cc5n4CC4(C#N)CC4)[C@H]4CC[C@@H]43)c2O1 (single isomer, unassigned) [Example 24a]
11 | 2.1 nM | 8 nM | C[C@]1(c2ccc(Cl)cn2)Oc2cccc(N3CCN(Cc4nc5c(F)cc(C(=O)O)cc5n4CC4(C#N)CC4)[C@H]4CC[C@@H]43)c2O1 (single isomer, unassigned) [Example 24b]
12 | 130 nM | 260 nM | COc1cc(C(=O)O)cc2c1nc(CN1CCN(c3cccc4c3O[C@@](C)(c3ccc(Cl)cn3)O4)[C@H]3CC[C@@H]31)n2CC1(C#N)CC1 (single isomer, unassigned) [Example 25a]
13 | 6.2 nM | 7.5 nM | COc1cc(C(=O)O)cc2c1nc(CN1CCN(c3cccc4c3O[C@@](C)(c3ccc(Cl)cn3)O4)[C@H]3CC[C@@H]31)n2CC1(C#N)CC1 (single isomer, unassigned) [Example 25b]
14 | 1.2 nM | 3.1 nM | COc1cc(C(=O)O)cc2c1nc(CN1CCN(c3cccc4c3O[C@@](C)(c3ccc(Cl)cn3)O4)[C@H]3CC[C@@H]31)n2CC1(C#N)CC1 (single isomer, unassigned) [Example 25c]
15 | 36 nM | 74 nM | COc1cc(C(=O)O)cc2c1nc(CN1CCN(c3cccc4c3O[C@@](C)(c3ccc(Cl)cn3)O4)[C@H]3CC[C@@H]31)n2CC1(C#N)CC1 (single isomer, unassigned) [Example 25d]
16 | 350 nM | 450 nM | C[C@]1(c2ccc(Cl)cn2)Oc2cccc(N3CCN(Cc4nc5c(Cl)cc(C(=O)O)cc5n4CC4(CC#N)CC4)[C@H]4CC[C@@H]43)c2O1 (single isomer, unassigned) [Example 26a]
17 | 1.5 nM | 2 nM | C[C@]1(c2ccc(Cl)cn2)Oc2cccc(N3CCN(Cc4nc5c(Cl)cc(C(=O)O)cc5n4CC4(CC#N)CC4)[C@H]4CC[C@@H]43)c2O1 (single isomer, unassigned) [Example 26b]
